Source: ChEMBL document CHEMBL4130353, “2-Substituted 3,7,8-trimethylnaphtho[1,2-b]furan-4,5-diones as specific L-shaped NQO1-mediated redox modulators for the treatment of non-small cell lung cancer” (Eur J Med Chem, 2017)
In brackets after ≈: the same amount, converted by molar mass. Activity calls are given as the source filed them. The rule behind the calls is not given here.

Assays:
[1] = species on record: Homo sapiens; experiment: Selectivity ratio for substrate activity at recombinant human NQO1 to substrate activity at human CPR
[2] = Effective permeability of the compound at pH 7.4 by PAMPA assay; assay type: ADME; conditions: read-out: Peff
[3] = Solubility of the compound in diluted HCl buffer at pH 3; assay type: physicochemical
[4] = Lipophilicity, log D of the compound at pH 7.4; assay type: physicochemical; conditions: buffer
[5] = target: NAD(P)H dehydrogenase [quinone] 1 (Homo sapiens) (UniProt P15559); experiment: Substrate activity at recombinant human NQO1 expressed in Escherichia coli assessed as reduction rate by measuring umol of NADPH utilized per umol of enzyme at 10 uM preincubated for 3 mins followed by NADPH addition measured at 2 secs interval for 5 mins by UV-Vis spectroscopy
[6] = Intrinsic solubility of the compound; assay type: physicochemical; conditions: read-out: Intrinsic_solubility
[7] = target: T1, NADPH--cytochrome P450 reductase (Homo sapiens, UniProt P16435); experiment: Substrate activity at human CPR expressed in baculovirus expression system assessed as reduction rate by measuring umol of NADPH utilized per umol of enzyme at 10 uM preincubated for 3 mins followed by NADPH addition measured at 2 secs interval for 5 mins by UV-Vis spectroscopy; assay type: ADME
T1 sequence (P16435 whole entry): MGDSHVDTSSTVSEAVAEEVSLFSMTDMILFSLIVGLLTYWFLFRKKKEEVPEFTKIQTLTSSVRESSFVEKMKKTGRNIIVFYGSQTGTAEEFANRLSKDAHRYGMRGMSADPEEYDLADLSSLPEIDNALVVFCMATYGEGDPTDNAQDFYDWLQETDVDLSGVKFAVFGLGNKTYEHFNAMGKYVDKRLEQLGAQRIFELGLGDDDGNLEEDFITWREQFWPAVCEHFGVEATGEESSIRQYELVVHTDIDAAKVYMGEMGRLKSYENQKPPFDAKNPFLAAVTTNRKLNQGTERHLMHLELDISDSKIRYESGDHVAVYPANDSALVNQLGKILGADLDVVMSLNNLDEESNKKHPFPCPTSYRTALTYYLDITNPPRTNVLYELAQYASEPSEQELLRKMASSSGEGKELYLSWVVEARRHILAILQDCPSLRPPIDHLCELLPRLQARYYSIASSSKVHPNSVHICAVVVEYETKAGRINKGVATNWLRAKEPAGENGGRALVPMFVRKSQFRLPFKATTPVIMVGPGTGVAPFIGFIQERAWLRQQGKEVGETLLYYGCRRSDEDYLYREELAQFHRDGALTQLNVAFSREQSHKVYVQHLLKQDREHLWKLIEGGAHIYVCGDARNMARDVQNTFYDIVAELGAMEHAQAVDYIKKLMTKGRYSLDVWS

[8] = tested on: A549/TR; experiment: Cytotoxicity against human A549/TR cells assessed as cell growth inhibition preincubated for 24 hrs followed by compound washout measured after 72 hrs by MTT assay; assay type: functional, cell-based
[9] = target: NAD(P)H dehydrogenase [quinone] 1 (Homo sapiens) (UniProt P15559); experiment: Substrate activity at NQO1 in human A549 cells assessed as induction of enzyme-catalyzed ROS production at 10 uM after 1 to 3 hrs by DCFH-DA-based flow cytometry; assay type: cell-based
[10] = tested on: L02; experiment: Induction of intracellular ROS levels in human L02 cells at 10 uM after 1 to 3 hrs by DCFH-DA-based flow cytometry; assay type: cell-based; conditions: l02, 10 µM
[11] = tested on: A549; experiment: Antitumor activity against human A549 cells xenografted in athymic nude mouse assessed as tumor growth inhibition at 30 mg/kg, iv administered every other day for 3 weeks measured every day during compound dosing relative to control; assay type: functional; conditions: 504 h, read-out: TGI
[12] = target: NAD(P)H dehydrogenase [quinone] 1 (Homo sapiens) (UniProt P15559); experiment: Substrate activity at NQO1 in human A549 cells assessed as induction of enzyme-catalyzed lipid peroxidation by measuring MDA equivalents per protein at 10 uM after 24 hrs by TBARS assay; assay type: cell-based
[13] = tested on: A549; experiment: Antitumor activity against human A549 cells xenografted in athymic nude mouse assessed as tumor growth inhibition at 50 mg/kg, iv administered every other day for 3 weeks measured every day during compound dosing relative to control; assay type: functional; conditions: 504 h, read-out: TGI
[14] = species on record: Danio rerio; experiment: Hepatotoxicity in 48 hrs post fertilized transgenic liver zebrafish larvae model expressing LFABP:EGFP protein at 1 uM measured after 48 hrs post dose by fluorescence based assay; assay type: organism-based; conditions: in vivo

NAD(P)H dehydrogenase [quinone] 1 (Homo sapiens), sequence (P15559 whole entry): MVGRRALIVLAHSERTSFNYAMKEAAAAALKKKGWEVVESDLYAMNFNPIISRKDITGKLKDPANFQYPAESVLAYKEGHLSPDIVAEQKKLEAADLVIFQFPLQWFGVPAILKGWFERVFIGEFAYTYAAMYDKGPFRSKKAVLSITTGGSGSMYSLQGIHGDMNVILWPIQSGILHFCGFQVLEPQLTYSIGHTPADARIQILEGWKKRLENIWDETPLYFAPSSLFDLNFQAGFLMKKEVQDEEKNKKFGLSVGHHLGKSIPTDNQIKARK

Compound | solubility [3] | Activity [5] | solubility [6] | further results
Cc1cc2c(cc1C)-c1oc(CNc3ccc(Br)cc3)c(C)c1C(=O)C2=O | – | 1150 µmol/min | – | –
Cc1cc2c(cc1C)-c1oc(CNc3ccc(F)cc3)c(C)c1C(=O)C2=O | 100 to 500 µg/mL (≈ 275 to 1380 µM) | 1330 µmol/min | 48.5 µg/mL (≈ 133 µM) | Selectivity ratio [1]: 12.7; Papp [2]: 42 ×10⁻⁶ cm/s; logD [4]: 4.03; Activity [7]: 105 µmol NADPH/min/µmol enzyme
Cc1cc2c(cc1C)-c1oc(CNc3ccc(Cl)c(Cl)c3)c(C)c1C(=O)C2=O | – | 847 µmol/min | – | –
CC(=O)O[C@H]1C(=O)[C@@]2(C)[C@H]([C@H](OC(=O)c3ccccc3)[C@]3(O)C[C@H](OC(=O)[C@H](O)[C@@H](NC(=O)c4ccccc4)c4ccccc4)C(C)=C1C3(C)C)[C@]1(OC(C)=O)CO[C@@H]1C[C@@H]2O [PACLITAXEL] | – | – | – | IC50 [8]: 28 µM
Cc1cc2c(cc1C)-c1occ(C)c1C(=O)C2=O | < 100 µg/mL | – | 28.6 µg/mL (≈ 119 µM) | Papp [2]: 43.1 ×10⁻⁶ cm/s; logD [4]: 3.65; Activity [7]: 142 µmol NADPH/min/µmol enzyme
CC1(C)CCC2=C(O1)c1ccccc1C(=O)C2=O [LAPACHONE] | < 100 µg/mL | – | 38 µg/mL (≈ 157 µM) | Activity [9]: Active; Activity [10]: Toxic; inhibition in vivo at 30 mg/kg [11]: 78.5%; Activity [12]: 15.9 nmol/mg; Papp [2]: 46.4 ×10⁻⁶ cm/s; inhibition in vivo at 50 mg/kg [13]: 84.9%; Activity [14]: Toxic
Cc1cc2c(cc1C)-c1oc(CNc3ccc(C#N)cc3)c(C)c1C(=O)C2=O | – | 898 µmol/min | – | –
Cc1cc2c(cc1C)-c1oc(CNc3ccc(Cl)cc3Cl)c(C)c1C(=O)C2=O | – | 1060 µmol/min | – | –
COc1cccc(NCc2oc3c(c2C)C(=O)C(=O)c2cc(C)c(C)cc2-3)c1 | – | 955 µmol/min | – | –
Cc1cc2c(cc1C)-c1oc(CNc3ccc(F)c(Cl)c3)c(C)c1C(=O)C2=O | – | 940 µmol/min | – | –
COc1ccc(NCc2oc3c(c2C)C(=O)C(=O)c2cc(C)c(C)cc2-3)cc1 | – | 1120 µmol/min | – | –
Cc1cc2c(cc1C)-c1oc(CNc3ccc(F)cc3C)c(C)c1C(=O)C2=O | < 100 µg/mL | 1320 µmol/min | 33.1 µg/mL (≈ 87.7 µM) | Selectivity ratio [1]: 10.3; logD [4]: 3.31; Activity [7]: 127 µmol NADPH/min/µmol enzyme
Cc1cc2c(cc1C)-c1oc(C(=O)Nc3ccc(F)cc3)c(C)c1C(=O)C2=O | – | 1260 µmol/min | – | –
Cc1cc2c(cc1C)-c1oc(CNc3ccc(F)cc3F)c(C)c1C(=O)C2=O | – | 1180 µmol/min | – | –
Cc1cc2c(cc1C)-c1oc(C(=O)NCc3ccc(F)cc3)c(C)c1C(=O)C2=O | – | 1290 µmol/min | – | –
Cc1cc2c(cc1C)-c1oc(CNCc3ccc(F)cc3)c(C)c1C(=O)C2=O | – | 1200 µmol/min | – | –

Further lines, with some results ahead:

solubility [3] | Activity [5] | solubility [6] | Compound | further results
100 to 500 µg/mL (≈ 226 to 1130 µM) | 1360 µmol/min | 41.1 µg/mL (≈ 92.9 µM) | Cc1cc2c(cc1C)-c1oc(C(=O)N3CCN(Cc4ccccc4)CC3)c(C)c1C(=O)C2=O | Selectivity ratio [1]: 15.1; Papp [2]: 11.9 ×10⁻⁶ cm/s; logD [4]: 4.82; Activity [7]: 90 µmol NADPH/min/µmol enzyme
500 to 1000 µg/mL (≈ 1160 to 2310 µM) | 1460 µmol/min | 151 µg/mL (≈ 349 µM) | Cc1cc2c(cc1C)-c1oc(CN3CCN(c4ccc(F)cc4)CC3)c(C)c1C(=O)C2=O | Selectivity ratio [1]: 9.19; Papp [2]: 28.3 ×10⁻⁶ cm/s; logD [4]: 2.89; Activity [7]: 159 µmol NADPH/min/µmol enzyme
– | 1190 µmol/min | – | Cc1cc2c(cc1C)-c1oc(CN3CCN(Cc4ccccc4)CC3)c(C)c1C(=O)C2=O | –
– | 1040 µmol/min | – | COc1ccccc1NCc1oc2c(c1C)C(=O)C(=O)c1cc(C)c(C)cc1-2 | –
100 to 500 µg/mL (≈ 275 to 1380 µM) | 1340 µmol/min | 51.2 µg/mL (≈ 141 µM) | Cc1cc2c(cc1C)-c1oc(CNc3cccc(F)c3)c(C)c1C(=O)C2=O | Selectivity ratio [1]: 12; Papp [2]: 66.2 ×10⁻⁶ cm/s; logD [4]: 4.21; Activity [7]: 112 µmol NADPH/min/µmol enzyme
– | 1050 µmol/min | – | Cc1cc2c(cc1C)-c1oc(CN3CCN(c4ccccc4)CC3)c(C)c1C(=O)C2=O | –
– | 1190 µmol/min | – | Cc1cc2c(cc1C)-c1oc(C(=O)N3CCN(c4ccc(F)cc4)CC3)c(C)c1C(=O)C2=O | –
